The text below walks through data of ChEMBL document CHEMBL1909559, “Design, synthesis, and biological evaluation of benzodiazepine-based SUMO-specific protease 1 inhibitors” (Bioorg Med Chem Lett, 2011).

In one experiment the test system is PC-3. The experiment is described as follows: Cytotoxicity against human PC3 cells.
Experiment [1] concerns the target T1, Sentrin-specific protease 1 (Homo sapiens, UniProt Q9P0U3).
T1 sequence (Q9P0U3 whole entry): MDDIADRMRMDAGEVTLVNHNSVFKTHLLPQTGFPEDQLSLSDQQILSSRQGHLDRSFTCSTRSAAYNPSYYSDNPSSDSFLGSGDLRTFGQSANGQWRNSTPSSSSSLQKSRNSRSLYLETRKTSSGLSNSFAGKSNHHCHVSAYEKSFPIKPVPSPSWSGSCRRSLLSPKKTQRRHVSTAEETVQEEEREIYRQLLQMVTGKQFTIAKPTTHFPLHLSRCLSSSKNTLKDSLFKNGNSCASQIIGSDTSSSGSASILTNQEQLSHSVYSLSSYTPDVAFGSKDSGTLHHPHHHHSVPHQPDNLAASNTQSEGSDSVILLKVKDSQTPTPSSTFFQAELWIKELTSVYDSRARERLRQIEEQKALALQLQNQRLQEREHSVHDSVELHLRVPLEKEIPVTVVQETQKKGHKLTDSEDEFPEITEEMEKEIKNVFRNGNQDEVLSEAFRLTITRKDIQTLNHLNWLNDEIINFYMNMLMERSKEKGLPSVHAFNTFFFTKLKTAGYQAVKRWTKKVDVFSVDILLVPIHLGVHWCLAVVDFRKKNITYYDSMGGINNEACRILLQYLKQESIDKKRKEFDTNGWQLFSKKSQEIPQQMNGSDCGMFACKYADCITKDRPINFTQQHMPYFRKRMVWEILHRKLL
Description: Inhibition of histidine-tagged human SENP1 catalytic domain preincubated for 10 mins by SUMO-CHOP-PLA2 reporter fluorescence assay.

As for `O=CCN1C(=O)C(NC(=O)c2ccc(NC(=O)OCc3ccccc3)cc2)N=C(c2ccccc2)c2ccccc21` (stereo not drawn), the midpoint of inhibition in the experiment on PC-3, the IC50, lay at 13 µM. In turn, `CC(C)(C)OC(=O)Nc1ccc(C(=O)NC2N=C(c3ccccc3)c3ccccc3N(CC=O)C2=O)cc1` (stereo not drawn) came in with an IC50 in experiment [1] greater than 100 µM. On to `O=CCN1C(=O)C(NC(=O)c2cccc(NC(=O)OCc3ccccc3)c2)N=C(c2ccccc2)c2ccccc21` (stereo not drawn), for which the IC50 in the experiment with PC-3 amounted to 35.7 µM. In experiment [1], `CC(C)(C)OC(=O)Nc1cccc(C(=O)NC2N=C(c3ccccc3)c3ccccc3N(CC=O)C2=O)c1` (stereo not drawn) returned an IC50 greater than 100 µM. As for `CC(=O)Nc1cccc(C(=O)NC2N=C(c3ccccc3)c3ccccc3N(CC=O)C2=O)c1` (stereo not drawn), in experiment [1], the IC50 is greater than 100 µM. Compound `O=C(NC1N=C(c2ccccc2)c2ccccc2N(CCO)C1=O)OCc1ccccc1` (stereo not drawn) returned an IC50 in experiment [1] greater than 100 µM.

Compound `O=CCCN1C(=O)C(NC(=O)OCc2ccccc2)N=C(c2ccccc2)c2ccccc21` (stereo not drawn) yielded an IC50 in experiment [1] greater than 100 µM. Take `O=CCN1C(=O)C(NC(=O)OCc2ccccc2)N=Cc2ccccc21` (stereo not drawn): the IC50 in experiment [1] is greater than 100 µM.

Broadly, the IC50 is the concentration at which inhibition is half-maximal. High values mean weaker potency in that assay, low ones greater potency in that assay.
